In publication PMC7767053, “Functional Analysis of Odorant-Binding Proteins 12 and 17 from Wheat Blossom Midge Sitodiplosis mosellana Géhin (Diptera: Cecidomyiidae)” (Insects, 2020):
“Also recorded” adds a separate entry of the source. Like-named read-outs stand apart in the source and are kept apart here.

Assays:
SmosOBP17 = SmosOBP17 (Sitodiplosis mosellana, UniProt A0A346RTY9); experiment: Fluorescence competitive binding assay with 1-NPN probe, recombinant SmosOBP17; conditions: for Ki: calculated from IC50, Ki = [IC50]/(1 + [1-NPN]/K1-NPN); for binding to SmosOBP17 (in words): fluorescence competitive binding
Experimental: (§1) To determine binding affinities of SmosOBP12 and SmosOBP17 to host plant volatile compounds, fluorescence competitive binding assays were conducted using 1-N-phenyl-naphthylamine (1-NPN) as the fluorescent probe. Twenty-eight volatile compounds from winter wheat (Table 2) were selected based on our previous research. Both the probe and candidate ligands were dissolved in chromatographic-grade methanol to obtain 1 mM stock solutions, whereas recombinant SmosOBPs were diluted in 20 mM Tris-HCl (pH 7.4) to 2 μM. Fluorescence intensity was detected on an F-4600 fluorescence spectrophotometer (Hitachi, Tokyo, Japan) with a 1 cm light path quartz cuvette. Slits of both excitation and emissions were 10 nm in width. The probe was excited at 337 nm, and emission spectra were recorded between 370 and 550 nm.
(§2) Affinities of SmosOBPs to tested volatile ligands were measured by competition assays: to the 1 mL solution containing 2 μM recombinant protein and 2 μM 1-NPN, 1 mM solution of each putative volatile ligand (in a 2 µL aliquot) was added to final concentrations of 2–14 μM for SmosOBP12 and 2–40 μM for SmosOBP17, respectively. Maximal fluorescence intensities were plotted against ligand concentrations. Data were obtained from three independent measurements.
(§3) The Kd value was calculated using GraphPad Prism 5 (GraphPad Software Inc., La Jolla, CA, USA) via nonlinear regression for a unique site of binding. The inhibition constant (Ki) of each ligand competitor was calculated from the corresponding IC50 value (the concentration of competitor displacing 50% of initial fluorescence intensity) according to the equation: Ki = [IC50]/(1 + [1-NPN]/K1-NPN), where [1-NPN] is the free concentration of 1-NPN, and K1-NPN is the dissociation constant of the SmosOBPs/1-NPN complex.

SmosOBP12 = SmosOBP12 (Sitodiplosis mosellana, UniProt A0A346RTY7); experiment: Fluorescence competitive binding assay with 1-NPN probe, recombinant SmosOBP12; conditions: for Ki: calculated from IC50, Ki = [IC50]/(1 + [1-NPN]/K1-NPN); for binding to SmosOBP12 (in words): fluorescence competitive binding
Experimental: as §1, §2, §3

[1] = system: female antennae of S. mosellana; parameters: method as in Cheng et al., 2020; conditions: ref Cheng et al., 2020; cited from earlier work
S. mosellana females = experiment: Y-tube olfactometer bioassay; format: in vivo, Sitodiplosis mosellana; conditions: 10 μL of 20 μg/μL in paraffin oil vs paraffin oil control; 60 females
Experimental: Behavioral responses of S. mosellana females to the 28 volatile ligands were measured in a glass Y-tube olfactometer. The base and two arms of the Y-tube are 15 cm in length and 25 mm in internal diameter. The angle between arms is 60°. A 10 μL aliquot of the test chemical in paraffin oil at a concentration of 20 μg/μL [45] was applied to a filter paper strip (20 × 20 mm), which was allowed to evaporate for 20 s and then placed into one of the two odor bottles. The other odor bottle contained a filter paper strip treated with 10 μL of paraffin oil as the control. Moist, activated-charcoal filtered air entered both odor bottles connected by Teflon tubing to their respective arms of the Y-tube. The airflow rate through the olfactometer was 100 mL/min, which was measured by a float rotor meter. A newly emerged female S. mosellana adult was introduced into the end of the base of the Y-tube, which was then immediately covered with a dark paper box. An office lamp (20 W) illuminated the joint of two arms to facilitate observation. The choice was made if the S. mosellana female walked or flew 5 cm past the Y junction within 5 min and remained there for at least 15 s. Otherwise, it would be recorded as no-choice. Odor source was renewed for every five individuals. After testing for 10 individuals, the Y-tube was thoroughly cleaned with 95% ethanol and dried, and the treatment and control arms were switched to avoid the directional bias. After one odor source was tested, the Y-tube, odor bottles, and Teflon tubing were cleaned and dried before reuse. All experiments were conducted in a laboratory with a temperature of 25 ± 1 °C from 5:00 to 9:00 p.m. Sixty female adults were tested in each treatment group, and each individual was used only once. The choice response of insects in each treatment group was analyzed by the chi-square test using SPSS 20.0 software (Chicago, IL, USA). Non-selecting insects were recorded but not included in the statistical analysis.

[2] = displacement of 1-NPN, 2 μM protein, 2 μM 1-NPN, ligand 2–40 μM, three independent measurements, read-out: SmosOBP17 IC50
[3] = displacement of 1-NPN, 2 μM protein, 2 μM 1-NPN, ligand 2–14 μM, three independent measurements, read-out: SmosOBP12 IC50

SmosOBP17, sequence (A0A346RTY9 entry or part of it): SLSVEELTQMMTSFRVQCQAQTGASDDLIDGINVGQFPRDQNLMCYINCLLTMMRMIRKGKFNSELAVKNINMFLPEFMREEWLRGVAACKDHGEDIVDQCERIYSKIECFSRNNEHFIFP
SmosOBP12, sequence (A0A346RTY7 entry or part of it): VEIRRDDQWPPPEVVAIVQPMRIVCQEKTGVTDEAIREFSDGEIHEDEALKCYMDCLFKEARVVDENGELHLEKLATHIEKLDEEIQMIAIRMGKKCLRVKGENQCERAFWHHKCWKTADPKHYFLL

Row | Structure (SMILES) | Kd (SmosOBP17; 2 µM protein titrated with 1-NPN 0–24 µM, read-out: dissociation constant (Kd) of SmosOBP17 with 1-NPN) [µM] | Kd (SmosOBP12; 2 µM protein titrated with 1-NPN 0–24 µM, read-out: dissociation constant (Kd) of SmosOBP12 with 1-NPN) [µM] | IC50 (SmosOBP17; [2]) [µM] | electrophysiological response on female antennae [1] | behavioral response of S. mosellana female adults (S. mosellana females) | Ki (SmosOBP12; read-out: SmosOBP12 Ki) [µM] | IC50 (SmosOBP12; [3]) [µM] | Ki (SmosOBP17) [µM] | binding to SmosOBP17 (in words) (SmosOBP17) | IC50 (SmosOBP17) [µM] | IC50 (SmosOBP12) [µM] | Ki (SmosOBP12; SmosOBP12 Ki) [µM] | binding to SmosOBP12 (in words) (SmosOBP12)
1 | c1ccc(Nc2cccc3ccccc23)cc1 [1-NPN, 1-N-phenyl-naphthylamine, reference compound] | 3.02 | 4.26 |  |  |  |  |  |  |  |  |  |  | 
2 | C=CC(O)CCCCC (stereo not drawn) [1-Octen-3-ol] |  |  | > 40 | strong electrophysiological responses | intensive response; also recorded: significant attraction; also recorded: significantly attracted | 5.29 ± 0.11 | 6.55 ± 0.12 |  |  |  |  |  | 
3 | CCCCC(CC)CO (stereo not drawn) [2-Ethyl hexanol] |  |  | > 40 |  |  | 6.36 ± 0.25 | 7.86 ± 0.31 | > 30 | did not bind |  |  |  | 
4 | CCCCC(C)=O [2-Hexanone] |  |  |  |  |  |  |  |  |  | > 40 | 12.66 ± 0.08 | 10.25 ± 0.06 | 
5 | CCCCCCCCCCCC(C)=O [2-Tridecanone] |  |  | > 40 |  |  | > 11.3 | > 14 | > 30 | did not show any affinity |  |  |  | did not show any affinity
6 | CC1=CCC2C(C1)C2(C)C (stereo not drawn) [3-Carene] |  |  | > 40 |  | intensive response; also recorded: significant attraction | 3.84 ± 0.12 | 4.76 ± 0.15 |  |  |  |  |  | 
7 | CCCC(O)CC (stereo not drawn) [3-Hexanol] |  |  | 34.68 ± 0.34 | strong electrophysiological responses | intensive response; also recorded: significant attraction; also recorded: significantly attracted | 3.33 ± 0.05 | 4.12 ± 0.07 | 26.05 ± 0.25 |  |  |  |  | 
8 | CCCC(=O)CC [3-Hexanone] |  |  | 37.1 ± 0.06 |  |  | 6.26 ± 0.03 | 7.74 ± 0.04 | 27.87 ± 0.04 |  |  |  |  | 
9 | CCCCC(=O)CCCC [5-Nonanone] |  |  | > 40 |  |  | 6.72 ± 0.1 | 8.32 ± 0.14 |  |  |  |  |  | 
10 | CC/C=C\CCOC(C)=O [(Z)-3-Hexenyl acetate] |  |  | > 40 | strong electrophysiological responses | intensive response; also recorded: significant attraction; also recorded: significantly attracted | 7.18 ± 0.01 | 8.88 ± 0.02 |  |  |  |  |  | 
11 | CC(C)(CO)[C@@H](O)C(=O)NCCCO [D-Panthenol] |  |  | 38.01 ± 0.2 | strong electrophysiological responses | intensive response; also recorded: significant attraction; also recorded: significantly attracted | 4.07 ± 0.05 | 5.04 ± 0.08 | 28.55 ± 0.15 |  |  |  |  | 
12 | CCCCCCCCCCCC=O [Dodecanal] |  |  | > 40 |  |  | 8.06 ± 0.37 | 9.94 ± 0.44 | > 30 | did not bind |  |  |  | bound
13 | CCCCCCCCCCCC [Dodecane] |  |  | > 40 |  |  | > 11.3 | > 14 | > 30 |  |  |  |  | 
14 | CCCCCCC(=O)OCC [Ethyl heptanoate] |  |  | 38.28 ± 0.12 | strong electrophysiological responses | intensive response; also recorded: significant attraction; also recorded: significantly attracted | 7.29 ± 0.09 | 9 ± 0.11 | 28.76 ± 0.09 |  |  |  |  | 
15 | CCCCCCCOC(C)=O [Heptyl acetate] |  |  | 28.79 ± 0.09 | strong electrophysiological responses | intensive response; also recorded: significant attraction; also recorded: significantly attracted | 3.34 ± 0.02 | 4.11 ± 0.02 | 21.63 ± 0.06 |  |  |  |  | 
16 | CCCCCCOC(=O)CC [Hexyl propionate] |  |  |  |  |  | 5.9 ± 0.12 | 7.28 ± 0.16 |  |  |  |  |  | 
17 | CC(=O)OCCCCCC(C)C [Isooctyl acetate] |  |  | > 40 |  |  | > 11.3 | > 14 | > 30 | did not show any affinity |  |  |  | did not show any affinity
18 | CCCCCCCCCCCCCCC [Pentadecane] |  |  | > 40 |  |  | > 11.3 | > 14 | > 30 |  |  |  |  | 
19 | CCCCCOC(=O)CCCC [Pentyl pentanoate] |  |  | > 40 |  |  | 4.24 ± 0.03 | 5.23 ± 0.01 |  |  |  |  |  | 
20 | CCCCCCCCCCCCC [Tridecane] |  |  | > 40 |  |  | > 11.3 | > 14 | > 30 |  |  |  |  | 
21 | CCCCCCCCCCCO [Undecanol] |  |  | > 40 |  |  | 4.39 ± 0.02 | 5.43 ± 0.03 |  |  |  |  |  | 
22 | CC1=CC[C@@]23CC1C(C)(C)[C@@H]2CC[C@H]3C [α-Cedrene] |  |  | > 40 |  |  | > 11.3 | > 14 | > 30 | did not show any affinity |  |  |  | did not show any affinity
23 | C/C1=C\CC/C(C)=C/CC(C)(C)/C=C/C1 [α-Humulene] |  |  | > 40 |  |  | > 11.3 | > 14 | > 30 | did not show any affinity |  |  |  | did not show any affinity
24 | CC1=CCC2CC1C2(C)C (stereo not drawn) [α-Pinene] |  |  |  |  |  |  |  |  | did not bind | > 40 | 7.63 ± 0.06 | 6.17 ± 0.04 | 
25 | C=C1CC/C=C(\C)CC[C@@H]2[C@@H]1CC2(C)C [β-Caryophyllene] |  |  |  |  |  |  |  |  | did not show any affinity | > 40 | > 14 | > 11.3 | did not show any affinity
